Measurements as given in patent publication US20230286973A1, “PROTEIN SECRETION INHIBITORS” (KEZAR LIFE SCIENCES, priority 2020, published 2023).
pEC50, pIC50: −log10 of the molar value. Several values for one entry are separate records, joined by “and”; a condition that tells them apart may be missing. Identical values can stand only once.

Experiments:
[1] = test system: PD1-ss+10aa/Gaussia Luciferase; experiment: Dox-Induced PD1-ss-Gluc Assay; assay type: cell-based; conditions: 24 hr Dox induction; 293FRT/TO cells; read-out: 24 hr Dox Inducible PD1ssGluc 293FRT/TO: Mean IC50
Procedure, shortened: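 Flp-In 293 T-REx, stable line; Tet-regulated PD1-ss+10aa fused to Gaussia luciferase; plated day prior; cpd + doxycycline in DMSO/media; 37 °C, 5% CO2.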

[2] = test system: TNFα-FL/Gaussia Luciferase; experiment: Dox Induced TNFα-FL-Gluc Assay; assay type: cell-based; conditions: for pIC50: 24 hr Dox induction, 293FRT/TO cells, read-out: 24 hr Dox Inducible TNFaFLGluc 293FRT/TO: Mean IC50; for 24 hr Dox Inducible TNFaFLGluc 293FRT/TO: TNF/PD1: ratio of TNFaFLGluc IC50 to PD1ssGluc IC50
Procedure, shortened: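 Cells are seeded one day ahead, then treated with compound plus doxycycline at 37 °C, 5% CO2. The stable Flp-In 293 T-REx line expresses full-length TNFα (amino acids 1-233) with Gaussia luciferase fused to its 3′ end, inducibly via T-REx.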

[3] = test system: HER3-ss+4aa/Gaussia Luciferase; experiment: Dox-Induced Her3-ss-Gluc Assay; assay type: cell-based; conditions: 24 hr Dox induction; 293FRT/TO cells; read-out: 24 hr Dox Inducible Her3(ss + 4)Gluc 293FRT/TO: Mean IC50
Procedure, shortened: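 Expression of a Gaussia luciferase reporter carrying the HER3 signal sequence plus 4 amino acids is induced by doxycycline in stably transfected Flp-In 293 T-REx cells. Compounds are added with doxycycline at 37° C., 5% CO2. Undefined stereocentres denote stereoisomer mixtures.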

[4] = test system: IL-2-FL/Gaussia Luciferase; experiment: Dox Induced IL2-FL-Gluc Assay; assay type: cell-based; conditions: for pIC50: 24 hr Dox induction, 293FRT/TO cells, read-out: 24 hr Dox Inducible IL2FLGluc 293FRT/TO: Mean IC50; for 24 hr Dox Inducible IL2FLGluc 293FRT/TO: IL2/PD1: ratio of IL2FLGluc IC50 to PD1ssGluc IC50
Procedure, shortened: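 Reporter is Gaussia luciferase fused to the 3′ end of full-length IL-2 (aa 1-153), expressed from a doxycycline-inducible T-REx construct in stably selected Flp-In 293 cells. Compounds were co-added with doxycycline and incubated at 37° C, 5% CO2.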

[5] = test system: multiple myeloma cell line NCI-H929; experiment: H929 Cell Viability Assay; assay type: cell-based, human; conditions: Homo sapiens, NCI-H929, 48 h, NCI-H929 cells, Celltiter-Glo
Procedure, shortened: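 Plate the myeloma cells in RPMI 1640 with 10% FBS, add serially diluted compound, incubate for 48 hours at 37° C, then add CellTiter-Glo and read luciferase signal.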

[6] = test system: multiple myeloma cell line U266B1; experiment: U266 Cell Viability Assay; assay type: cell-based, human; conditions: Homo sapiens, U-266, 48 h, U266B1 cells, Celltiter-Glo
Procedure, shortened: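 48 h treatment, 37° C./5% CO2, RPMI 1640 + 10% FBS; viability by CellTiter-Glo luminescence.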

[7] = Liver Microsome Stability Assay (rat); conditions: rat liver microsomes, with NADPH, 1.0 uM compound
Experimental: (§1) Stability of a compound was assessed in the presence of liver microsomes from various sources—mouse, rat, monkey and human liver microsomes. 1.0 uM compound, 0.4% DMSO in 0.1 M Potassium Phosphate with 1.0 mg/mL liver microsomes, were incubated at 37° C. with or without 1 mM NADPH. The samples were quenched at 0, and 30 minutes.

[8] = Liver Microsome Stability Assay (mouse); conditions: mouse liver microsomes, with NADPH, 1.0 uM compound
Experimental: as §1

[9] = Liver Microsome Stability Assay (human); conditions: human liver microsomes, with NADPH, 1.0 uM compound
Experimental: as §1

[10] = Liver Microsome Stability Assay (monkey); conditions: monkey liver microsomes, with NADPH, 1.0 uM compound
Experimental: as §1

SMILES | pIC50 [1] | pIC50 [2] | pIC50 [3] | pIC50 [4] | pEC50 [5] | pEC50 [6] | Liver Microsome Stability (Multiple Species): Rat - % Remaining after 30 min w/NADPH [7] | Liver Microsome Stability (Multiple Species): Mouse - % Remaining after 30 min w/NADPH [8] | Liver Microsome Stability (Multiple Species): Human - % Remaining after 30 min w/NADPH [9] | Liver Microsome Stability (Multiple Species): Monkey - % Remaining after 30 min w/NADPH [10] | 24 hr Dox Inducible TNFaFLGluc 293FRT/TO: TNF/PD1 [2] | 24 hr Dox Inducible IL2FLGluc 293FRT/TO: IL2/PD1 [4]
Cc1cn(C(C)C)nc1/C=C/c1csc(NC(=O)c2cccn2Cc2ccnc(F)c2)n1 [Compound B83, (E)-1-((2-fluoropyridin-4-yl)methyl)-N-(4-(2-(1-isopropyl-4-methyl-1H-pyrazol-3-yl)vinyl)thiazol-2-yl)-1H-pyrrole-2-carboxamide] | 6.50 | 4.93 | 5.71 | 5.49 | 4.95 | 4.82 | 6.87% and 5.01% | 11.1% and 10.1% | 2.94% and 2.65% | 0.25% and 0.24% | 36.6 | 10
CC(C)c1c(/C=C/c2csc(NC(=O)c3cccn3Cc3ccncc3)n2)ncn1C [Compound B85, (E)-N-(4-(2-(5-isopropyl-1-methyl-1H-imidazol-4-yl)vinyl)thiazol-2-yl)-1-(pyridin-4-ylmethyl)-1H-pyrrole-2-carboxamide] | 6.48 | < 4.60 | < 4.60 | < 4.60 | < 4.60 | < 4.60 | 2.02% | 0.8% | 1.26% | 0.13% | >75.9 | >76
Cc1cc(/C=C/c2csc(NC(=O)c3cccn3Cc3ccnc(F)c3)n2)no1 [Compound B88, (E)-1-((2-fluoropyridin-4-yl)methyl)-N-(4-(2-(5-methylisoxazol-3-yl)vinyl)thiazol-2-yl)-1H-pyrrole-2-carboxamide] | 6.20 | < 4.60 | < 4.60 | < 4.60 | < 4.60 | < 4.60 | 2.29% | 3.15% | 15.6% | 15.2% | >40.0 | >40
CC(=O)N1CCC(n2cnc(/C=C/c3csc(NC(=O)c4cccn4Cc4ccnc(F)c4)n3)c2)CC1 [Compound B91, (E)-N-(4-(2-(1-(1-acetylpiperidin-4-yl)-1H-imidazol-4-yl)vinyl)thiazol-2-yl)-1-((2-fluoropyridin-4-yl)methyl)-1H-pyrrole-2-carboxamide] | 5.22 | < 4.60 | < 4.60 | < 4.60 | < 4.60 | < 4.60 | 44.2% | 33.9% | 0.22% | 0.24% | >4.13 | >4.1

Stronger by pIC50 [1], values ahead:

pIC50 [1] | pIC50 [2] | pIC50 [3] | pIC50 [4] | pEC50 [5] | pEC50 [6] | Liver Microsome Stability (Multiple Species): Rat - % Remaining after 30 min w/NADPH [7] | Liver Microsome Stability (Multiple Species): Mouse - % Remaining after 30 min w/NADPH [8] | Liver Microsome Stability (Multiple Species): Human - % Remaining after 30 min w/NADPH [9] | Liver Microsome Stability (Multiple Species): Monkey - % Remaining after 30 min w/NADPH [10] | SMILES | 24 hr Dox Inducible TNFaFLGluc 293FRT/TO: TNF/PD1 [2] | 24 hr Dox Inducible IL2FLGluc 293FRT/TO: IL2/PD1 [4]
6.64 | < 4.60 | 4.81 | < 4.60 | 4.77 | < 4.60 | 9.66% | 11.7% | 0.58% | 0.06% | CC(C)c1c(/C=C/c2csc(NC(=O)c3cccn3Cc3ccnc(F)c3)n2)ncn1C [Compound B81, (E)-1-((2-fluoropyridin-4-yl)methyl)-N-(4-(2-(5-isopropyl-1-methyl-1H-imidazol-4-yl)vinyl)thiazol-2-yl)-1H-pyrrole-2-carboxamide] | >109 | >110
6.98 | < 4.60 | 4.63 | < 4.60 | 4.78 | 4.78 | 17% | 12.5% | 0.27% | 0.11% | O=C(Nc1nc(/C=C/c2ncn3c2CCCC3)cs1)c1cccn1Cc1ccnc(F)c1 [Compound B86, (E)-1-((2-fluoropyridin-4-yl)methyl)-N-(4-(2-(5,6,7,8-tetrahydroimidazo[1,5-a]pyridin-1-yl)vinyl)thiazol-2-yl)-1H-pyrrole-2-carboxamide] | >239 | >240
6.88 | < 4.60 | < 4.60 | < 4.60 | 5.00 | 4.85 | 0.18% | 1.23% | 0.15% | 0.04% | CC(C)c1ccc(/C=C/c2csc(NC(=O)c3cccn3Cc3cc(F)nc(F)c3)n2)nc1 [Compound B87, (E)-1-((2,6-difluoropyridin-4-yl)methyl)-N-(4-(2-(5-isopropylpyridin-2-yl)vinyl)thiazol-2-yl)-1H-pyrrole-2-carboxamide] | >189 | >190
6.57 | < 4.60 | 5.96 | 5.78 | < 4.60 | < 4.60 | 1.11% | 2.24% | 0.4% | 0.17% | CCc1cc(/C=C/c2csc(NC(=O)c3cccn3Cc3ccnc(F)c3)n2)no1 [Compound B89, (E)-N-(4-(2-(5-ethylisoxazol-3-yl)vinyl)thiazol-2-yl)-1-((2-fluoropyridin-4-yl)methyl)-1H-pyrrole-2-carboxamide] | >92.2 | 6.1
6.78 | < 4.60 | 6.16 | 5.93 | 4.64 | < 4.60 | 5.78% | 10.8% | 0.87% | 0.54% | CC(C)c1cc(/C=C/c2csc(NC(=O)c3cccn3Cc3ccnc(F)c3)n2)no1 [Compound B90, (E)-1-((2-fluoropyridin-4-yl)methyl)-N-(4-(2-(5-isopropylisoxazol-3-yl)vinyl)thiazol-2-yl)-1H-pyrrole-2-carboxamide] | >150 | 7
